According to patent US11331364B2, “Use for JNK inhibitor molecules for treatment of various diseases” (Xigen Inflammation Ltd., priority 2014, dated 2022):
Square brackets hold non-standard residues; d marks the D form. Peptide text beside a SMILES is read from it.

Test system: human whole blood
Assay: CD3/CD28-induced TNF-α release in human whole blood, 3 days
Type: cell-based
Settings: 1, 3, 10 μM, antibodies 2 μg/mL
Protocol: FIG. 24 JNK inhibition and TNF-α release in human whole blood. The JNK inhibitor with SEQ ID NO: 172 was added at three different concentrations, namely 1, 3 and 10 μM 1 h before whole blood stimulation with CD3+/−CD28 antibodies (2 μg/mL) for 3 days.
Whole blood from human healthy volunteers was collected using a venipuncture connected to a pre-labeled vacuum tube containing sodium citrate. Tubes are gently mixed by inversion 7-8 times; and are then kept at RT until stimulation. 350 μl of RPMI+P/S were added into 1.2 ml-96-well plate. 10 times concentrated of SEQ ID NO: 172 was prepared in RPMI+P/S (50 μl per well). 50 μl was added into 1.2 ml-96 well plates. 50 μl of whole blood was then added in each well where either medium alone or JNK inhibitor has been previously added. Whole blood was incubated at 37° C., 5% CO2 for 60 min. 50 μl/well of ligands diluted in RPMI+P/S was prepared, corresponding to the final dilution 10 times concentrated. After 60 min of incubation, ligand was added; wells were then mixed by pipetting up and down the blood. Whole blood was incubated for 3 days at 37° C. (wells were mixed by pipetting each well up and down once per day). […] Cytokine were then measured using standard Elisa kits. Results are expressed as pg/ml of supernatant of the measured cytokine. […]

Structure (SMILES): CC(C)C[C@H](NC(=O)[C@H](CC(N)=O)NC(=O)[C@H](CC(C)C)NC(=O)[C@@H](NC(=O)[C@@H](C)NC(=O)[C@@H]1CCCN1C(=O)[C@H](CCCNC(=N)N)NC(=O)[C@@H](CCCCN)NC(=O)[C@@H]1CCCN1C(=O)[C@H](CCCNC(=N)N)NC(=O)[C@@H](CCCNC(=N)N)NC(=O)[C@H](CCCNC(=N)N)NC(=O)[C@H](CCCNC(=N)N)NC(=O)[C@H](CCC(N)=O)NC(=O)[C@@H](CCCNC(=N)N)NC(=O)[C@H](CCCNC(=N)N)NC(=O)[C@H](CCCCN)NC(=O)[C@H](CCCCN)NC(=O)[C@H](N)CCCNC(=N)N)[C@@H](C)O)C(=O)N[C@H](Cc1ccccc1)C(N)=O [SEQ ID NO: 172, rKKRrQRRrRPkRPaTLNLf] (H-[dR]KKR[dR]QRR[dR]RP[dK]RP[dA]TLNL[dF]-NH2; N-terminus assumed)
- CD3/CD28-induced TNF-α release: did reduce the CD3/CD28-induced TNF-α release in a dose-dependent manner
